According to patent US10781224B2, “Bis(oxymethyl)phosphinic acid and biogenic metal salts thereof as regulators of plant growth and development” (priority 2016, dated 2020):

Key:
[1] = system: winter wheat (Vershin variety); assay: Winter wheat seed treatment with BHMPA salts: germinating power (length and mass of roots and sprouts); type: in vivo
Method: (§1) Experimental versions—soaking seeds in BHMPA solutions and solutions of BHMPA Ca, Mg, Na, Co, Mn, Cu, and Zn salts at 1·10^−6-1·10^−12% concentrations (doses). The studies were conducted in laboratory in Petri dishes; seed bed—two layers of filter paper. 50 seeds soaked in water (control) and in the solutions of the tested compounds (experimental) were placed into each dish. Wheat, corn, and rice seeds were exposed for one hour.
(§2) Seed germination energy and rate were calculated in percent as an arithmetic mean of the four experimental results (germination energy on the 4th day, wheat germination on the 8th day, rice and corn germination—on the 7th day). Germination was determined based on the germinating power indicators (length of the roots and sprouts and their wet and dry mass per 100 shoots).
(§3) The effect of pre-sowing seed treatment with the claimed BHMPA salts of biogenic metals was studied on winter wheat (Vershin variety), corn (Krasnodar 385 MV variety), and rice (Diamant variety).
The above data describe the seed viability only at the initial stage of germination, while the germination ability at the later stage of germination is defined by the initial germinating power. The method for the determination of the germinating power comprises measuring the height of the sprouts and primary roots, as well as the biomass and the dry mass thereof per 100 seedlings. [M. A. Kartuzova. Initial Germinating Power as Method of Biological Assessment of Seed Quality. Selection and Seed Farming, #2, 1953].

[2] = system: corn (Krasnodar 385 MV variety); assay: Corn seed treatment with BHMPA salts: germination energy and germination rate; type: in vivo
Method: Control—Soaking Seeds in Water;
as §1
Analysis was conducted according to the government standards GOST 12038-84 “Crop seeds. Technical conditions for determining the germination energy and germination rate”, GOST 12044-93 “Crop seeds. Methods for determining disease contamination.”
as §2, §3

[3] = comparative study, 1·10^−9% solution
[4] = 1·10^−9% solution, listed as Zn
[5] = comparative study vs Melaphen, 1·10^−8% solution

## O=P([O-])(CO)CO.O=P([O-])(CO)CO.[Zn+2] [Zn-salt, Zinc BHMPA Salt]
[1]; 1·10^−6% solution
  Length, root: 9.1 cm
  Length, root, + % to control: −6%
  Length, sprout: 6.9 cm
  Length, sprout, + % to control: −4%
  Mass, dry, root: 0.60 g/100 plantlings
  Mass, dry, root, + % to control: 5%
  Mass, dry, sprout: 0.61 g/100 plantlings
  Mass, dry, sprout, + % to control: −4%
  Mass, wet, root: 2.58 g/100 plantlings
  Mass, wet, root, + % to control: 0%
  Mass, wet, sprout: 4.73 g/100 plantlings
  Mass, wet, sprout, + % to control: −1%
[1]; 1·10^−7% solution
  Length, root: 10.2 cm
  Length, root, + % to control: 5%
  Length, sprout: 7.3 cm
  Length, sprout, + % to control: 1%
  Mass, dry, root: 0.62 g/100 plantlings
  Mass, dry, root, + % to control: 9%
  Mass, dry, sprout: 0.70 g/100 plantlings
  Mass, dry, sprout, + % to control: 9%
  Mass, wet, root: 2.61 g/100 plantlings
  Mass, wet, root, + % to control: 1%
  Mass, wet, sprout: 4.88 g/100 plantlings
  Mass, wet, sprout, + % to control: 2.5%
[1]; 1·10^−8% solution
  Length, root: 10.3 cm
  Length, root, + % to control: 6%
  Length, sprout: 7.5 cm
  Length, sprout, + % to control: 4%
  Mass, dry, root: 0.64 g/100 plantlings
  Mass, dry, root, + % to control: 12%
  Mass, dry, sprout: 0.77 g/100 plantlings
  Mass, dry, sprout, + % to control: 20%
  Mass, wet, root: 2.77 g/100 plantlings
  Mass, wet, root, + % to control: 7%
  Mass, wet, sprout: 4.98 g/100 plantlings
  Mass, wet, sprout, + % to control: 5%
[1]; 1·10^−9% solution
  Length, root: 10.9 cm
  Length, root, + % to control: 12%
  Length, sprout: 7.6 cm
  Length, sprout, + % to control: 5.5%
  Mass, dry, root: 0.69 g/100 plantlings
  Mass, dry, root, + % to control: 21%
  Mass, dry, sprout: 0.82 g/100 plantlings
  Mass, dry, sprout, + % to control: 28%
  Mass, wet, root: 3.58 g/100 plantlings
  Mass, wet, root, + % to control: 38%
  Mass, wet, sprout: 5.13 g/100 plantlings
  Mass, wet, sprout, + % to control: 8%
[1]; 1·10^−10% solution
  Length, root: 10.8 cm
  Length, root, + % to control: 11%
  Length, sprout: 7.6 cm
  Length, sprout, + % to control: 5.5%
  Mass, dry, root: 0.65 g/100 plantlings
  Mass, dry, root, + % to control: 14%
  Mass, dry, sprout: 0.80 g/100 plantlings
  Mass, dry, sprout, + % to control: 25%
  Mass, wet, root: 3.24 g/100 plantlings
  Mass, wet, root, + % to control: 25%
  Mass, wet, sprout: 4.96 g/100 plantlings
  Mass, wet, sprout, + % to control: 4%
[1]; 1·10^−11% solution
  Length, root: 10.3 cm
  Length, root, + % to control: 6%
  Length, sprout: 7.3 cm
  Length, sprout, + % to control: 1%
  Mass, dry, root: 0.63 g/100 plantlings
  Mass, dry, root, + % to control: 10.5%
  Mass, dry, sprout: 0.74 g/100 plantlings
  Mass, dry, sprout, + % to control: 16%
  Mass, wet, root: 2.8 g/100 plantlings
  Mass, wet, root, + % to control: 8%
  Mass, wet, sprout: 4.92 g/100 plantlings
  Mass, wet, sprout, + % to control: 3%
[1]; 1·10^−12% solution
  Length, root: 10.1 cm
  Length, root, + % to control: 4%
  Length, sprout: 7.2 cm
  Length, sprout, + % to control: 0%
  Mass, dry, root: 0.62 g/100 plantlings
  Mass, dry, root, + % to control: 9%
  Mass, dry, sprout: 0.63 g/100 plantlings
  Mass, dry, sprout, + % to control: −1%
  Mass, wet, root: 2.65 g/100 plantlings
  Mass, wet, root, + % to control: 2%
  Mass, wet, sprout: 4.90 g/100 plantlings
  Mass, wet, sprout, + % to control: 3%
[1]; [3]
  Length, root: 9.5 cm
  Length, root, + % to control: 9%
  Length, sprout: 6.3 cm
  Length, sprout, + % to control: 2%
  Mass, dry, root: 0.68 g/100 plantlings
  Mass, dry, root, + % to control: 10%
  Mass, dry, sprout: 0.55 g/100 plantlings
  Mass, dry, sprout, + % to control: 8%
  Mass, wet, root: 5.18 g/100 plantlings
  Mass, wet, root, + % to control: 43%
  Mass, wet, sprout: 4.91 g/100 plantlings
  Mass, wet, sprout, + % to control: 24%
[2]; 1·10^−6% solution
  Germination energy: 77.7%
  Germination rate: 80.0%
[2]; 1·10^−7% solution
  Germination energy: 84.0%
  Germination rate: 86.7%
[2]; 1·10^−8% solution
  Germination energy: 88.3%
  Germination rate: 90.8%
[2]; 1·10^−9% solution
  Germination energy: 88.3%
  Germination rate: 90.8%
[2]; [4]
  Germination energy: 84.2%
  Germination rate: 86.7%
[2]; 1·10^−10% solution
  Germination energy: 82.3%
  Germination rate: 85.0%
[2]; 1·10^−11% solution
  Germination energy: 80.7%
  Germination rate: 83.3%
[2]; 1·10^−12% solution
  Germination energy: 79.0%
  Germination rate: 81.7%
[2]; [5]
  Germination energy: 88.0%
  Germination rate: 95.7%
